In brackets after ≈: the same amount, converted by molar mass. A value given as a limit tells only on which side of the number the result lay.

Tested on in one experiment: not listed separately
The experiment is described as follows: Cytotoxicity against human SW1116 cells assessed as cell viability rate at 10 ug/ml after 24 hrs by MTT assay. In kind it is functional, SW 1116.
Conditions: not given
In general terms: Formazan colour is commonly taken as a measure of viable cells.
Take `CC1(C)CC(=O)C2=C(C1)OC(=O)C(NC(=O)c1ccccc1)C2c1ccco1` (stereo not drawn): the Cell viability amounted to 42.02%.

With `CC1(C)CC(=O)C2=C(C1)OC(=O)C(NC(=O)c1ccccc1)C2c1ccc(F)cc1` (mixture of isomers), the Cell viability was determined as 59.03%.

Regarding `CC1(C)CC(=O)C2=C(C1)OC(=O)C(NC(=O)c1ccccc1)C2c1ccc(Cl)cc1` (mixture of isomers), the Cell viability is 64.34%.

With `CC1(C)CC(=O)C2=C(C1)OC(=O)C(NC(=O)c1ccccc1)C2c1ccc([N+](=O)[O-])cc1` (mixture of isomers), the Cell viability is 46.6%.

For the compound `CC1(C)CC(=O)C2=C(C1)OC(=O)C(NC(=O)c1ccccc1)C2c1ccccc1Cl` (mixture of isomers), the Cell viability was 85.08%.

Consider `CC1(C)CC(=O)C2=C(C1)OC(=O)C(NC(=O)c1ccccc1)C2c1ccccc1Br` (mixture of isomers), for which the Cell viability is given as 55.74%.

Regarding `Cc1ccc(C2C3=C(CC(C)(C)CC3=O)OC(=O)C2NC(=O)c2ccccc2)cc1` (mixture of isomers), the Cell viability amounted to 82.67%.

As for `COc1cc(C2C3=C(CC(C)(C)CC3=O)OC(=O)C2NC(=O)c2ccccc2)cc(OC)c1OC` (mixture of isomers), the Cell viability is 92.18%.

On to `CC1(C)CC(=O)C2=C(C1)OC(=O)C(NC(=O)c1ccccc1)C2c1cccs1` (mixture of isomers), for which the Cell viability was determined as 50.51%.

Take `O=C1CCCC2=C1C(c1ccc(F)cc1)C(NC(=O)c1ccccc1)C(=O)O2` (mixture of isomers): the Cell viability is reported as 83.22%.

In the case of `O=C1CCCC2=C1C(c1ccc(Cl)cc1)C(NC(=O)c1ccccc1)C(=O)O2` (mixture of isomers), the Cell viability amounted to 69.78%.

With `O=C1CCCC2=C1C(c1ccc([N+](=O)[O-])cc1)C(NC(=O)c1ccccc1)C(=O)O2` (mixture of isomers), the Cell viability is on record as 55.22%.

Turning to `O=C1CCCC2=C1C(c1ccccc1Cl)C(NC(=O)c1ccccc1)C(=O)O2` (mixture of isomers), the Cell viability came out at 87.56%.

As for `O=C1CCCC2=C1C(c1ccccc1Br)C(NC(=O)c1ccccc1)C(=O)O2` (mixture of isomers), the Cell viability was 99.27%.

For `Cc1ccc(C2C3=C(CCCC3=O)OC(=O)C2NC(=O)c2ccccc2)cc1` (mixture of isomers), the Cell viability is reported as 107.87%.

In the case of `COc1cc(C2C3=C(CCCC3=O)OC(=O)C2NC(=O)c2ccccc2)cc(OC)c1OC` (mixture of isomers), the Cell viability is 94.07%.

For `O=C1CCCC2=C1C(c1cccs1)C(NC(=O)c1ccccc1)C(=O)O2` (mixture of isomers), the Cell viability was 69.73%.

Regarding `O=C1CCCC2=C1C(c1ccco1)C(NC(=O)c1ccccc1)C(=O)O2` (mixture of isomers), the Cell viability is listed as 74.22%.

As to `COc1cccc2c1C(=O)c1c(O)c3c(c(O)c1C2=O)C[C@@](O)(C(=O)CO)C[C@@H]3O[C@H]1C[C@H](N)[C@H](O)[C@H](C)O1.Cl` [DOXORUBICIN HYDROCHLORIDE], the Cell viability was 67.34%.

Tested on in a further experiment: not listed separately
Briefly: Cytotoxicity against human SW1116 cells assessed as cell viability rate at 0.1 ug/ml after 24 hrs by MTT assay. In kind it is functional, SW 1116.
Conditions: not given
Regarding `CC1(C)CC(=O)C2=C(C1)OC(=O)C(NC(=O)c1ccccc1)C2c1ccco1` (stereo not drawn), the Cell viability is on record as 79.26%.

As for `CC1(C)CC(=O)C2=C(C1)OC(=O)C(NC(=O)c1ccccc1)C2c1ccc(F)cc1` (mixture of isomers), the Cell viability is given as 95.76%.

Take `CC1(C)CC(=O)C2=C(C1)OC(=O)C(NC(=O)c1ccccc1)C2c1ccc(Cl)cc1` (mixture of isomers): the Cell viability is reported as 77.19%.

In the case of `CC1(C)CC(=O)C2=C(C1)OC(=O)C(NC(=O)c1ccccc1)C2c1ccc([N+](=O)[O-])cc1` (mixture of isomers), the Cell viability stood at 107.38%.

For `CC1(C)CC(=O)C2=C(C1)OC(=O)C(NC(=O)c1ccccc1)C2c1ccccc1Cl` (mixture of isomers), the Cell viability is 114.23%.

Turning to `CC1(C)CC(=O)C2=C(C1)OC(=O)C(NC(=O)c1ccccc1)C2c1ccccc1Br` (mixture of isomers), the Cell viability was determined as 102.11%.

For the compound `Cc1ccc(C2C3=C(CC(C)(C)CC3=O)OC(=O)C2NC(=O)c2ccccc2)cc1` (mixture of isomers), the Cell viability is on record as 77.88%.

On to `COc1cc(C2C3=C(CC(C)(C)CC3=O)OC(=O)C2NC(=O)c2ccccc2)cc(OC)c1OC` (mixture of isomers), for which the Cell viability turned out to be 91.48%.

`CC1(C)CC(=O)C2=C(C1)OC(=O)C(NC(=O)c1ccccc1)C2c1cccs1` (mixture of isomers): the Cell viability was 94.51%.

As for `O=C1CCCC2=C1C(c1ccc(F)cc1)C(NC(=O)c1ccccc1)C(=O)O2` (mixture of isomers), the Cell viability was found to be 90.86%.

Regarding `O=C1CCCC2=C1C(c1ccc(Cl)cc1)C(NC(=O)c1ccccc1)C(=O)O2` (mixture of isomers), the Cell viability is reported as 91.48%.

On to `O=C1CCCC2=C1C(c1ccc([N+](=O)[O-])cc1)C(NC(=O)c1ccccc1)C(=O)O2` (mixture of isomers), for which the Cell viability amounted to 73.6%.

Take `O=C1CCCC2=C1C(c1ccccc1Cl)C(NC(=O)c1ccccc1)C(=O)O2` (mixture of isomers): the Cell viability is reported as 109.5%.

As for `O=C1CCCC2=C1C(c1ccccc1Br)C(NC(=O)c1ccccc1)C(=O)O2` (mixture of isomers), the Cell viability amounted to 50.51%.

On to `Cc1ccc(C2C3=C(CCCC3=O)OC(=O)C2NC(=O)c2ccccc2)cc1` (mixture of isomers), for which the Cell viability is on record as 113.97%.

As to `COc1cc(C2C3=C(CCCC3=O)OC(=O)C2NC(=O)c2ccccc2)cc(OC)c1OC` (mixture of isomers), the Cell viability came out at 110.34%.

Consider `O=C1CCCC2=C1C(c1cccs1)C(NC(=O)c1ccccc1)C(=O)O2` (mixture of isomers), for which the Cell viability is listed as 79.97%.

In the case of `O=C1CCCC2=C1C(c1ccco1)C(NC(=O)c1ccccc1)C(=O)O2` (mixture of isomers), the Cell viability is on record as 95.53%.

Tested on in another experiment: not listed separately
Briefly: Cytotoxicity against human SW1116 cells assessed as cell viability rate at 1 ug/ml after 24 hrs by MTT assay.
Conditions: not given
In kind it is functional, SW 1116.
On to `CC1(C)CC(=O)C2=C(C1)OC(=O)C(NC(=O)c1ccccc1)C2c1ccco1` (stereo not drawn), for which the Cell viability turned out to be 67.67%.

Regarding `CC1(C)CC(=O)C2=C(C1)OC(=O)C(NC(=O)c1ccccc1)C2c1ccc(F)cc1` (mixture of isomers), the Cell viability was 91.39%.

As to `CC1(C)CC(=O)C2=C(C1)OC(=O)C(NC(=O)c1ccccc1)C2c1ccc(Cl)cc1` (mixture of isomers), the Cell viability turned out to be 77.81%.

Take `CC1(C)CC(=O)C2=C(C1)OC(=O)C(NC(=O)c1ccccc1)C2c1ccc([N+](=O)[O-])cc1` (mixture of isomers): the Cell viability is 73.4%.

Regarding `CC1(C)CC(=O)C2=C(C1)OC(=O)C(NC(=O)c1ccccc1)C2c1ccccc1Cl` (mixture of isomers), the Cell viability was 97.92%.

On to `CC1(C)CC(=O)C2=C(C1)OC(=O)C(NC(=O)c1ccccc1)C2c1ccccc1Br` (mixture of isomers), for which the Cell viability amounted to 99.3%.

On to `Cc1ccc(C2C3=C(CC(C)(C)CC3=O)OC(=O)C2NC(=O)c2ccccc2)cc1` (mixture of isomers), for which the Cell viability came to 83.63%.

Regarding `COc1cc(C2C3=C(CC(C)(C)CC3=O)OC(=O)C2NC(=O)c2ccccc2)cc(OC)c1OC` (mixture of isomers), the Cell viability is given as 81.59%.

On to `CC1(C)CC(=O)C2=C(C1)OC(=O)C(NC(=O)c1ccccc1)C2c1cccs1` (mixture of isomers), for which the Cell viability is on record as 104.31%.

As for `O=C1CCCC2=C1C(c1ccc(F)cc1)C(NC(=O)c1ccccc1)C(=O)O2` (mixture of isomers), the Cell viability is 91.07%.

Consider `O=C1CCCC2=C1C(c1ccc(Cl)cc1)C(NC(=O)c1ccccc1)C(=O)O2` (mixture of isomers), for which the Cell viability is on record as 89.77%.

Take `O=C1CCCC2=C1C(c1ccc([N+](=O)[O-])cc1)C(NC(=O)c1ccccc1)C(=O)O2` (mixture of isomers): the Cell viability is given as 100.6%.

For `O=C1CCCC2=C1C(c1ccccc1Cl)C(NC(=O)c1ccccc1)C(=O)O2` (mixture of isomers), the Cell viability turned out to be 102.59%.

As for `O=C1CCCC2=C1C(c1ccccc1Br)C(NC(=O)c1ccccc1)C(=O)O2` (mixture of isomers), the Cell viability came to 92.19%.

With `Cc1ccc(C2C3=C(CCCC3=O)OC(=O)C2NC(=O)c2ccccc2)cc1` (mixture of isomers), the Cell viability turned out to be 106.66%.

For `COc1cc(C2C3=C(CCCC3=O)OC(=O)C2NC(=O)c2ccccc2)cc(OC)c1OC` (mixture of isomers), the Cell viability worked out at 109.73%.

Consider `O=C1CCCC2=C1C(c1cccs1)C(NC(=O)c1ccccc1)C(=O)O2` (mixture of isomers), for which the Cell viability is listed as 81.65%.

With `O=C1CCCC2=C1C(c1ccco1)C(NC(=O)c1ccccc1)C(=O)O2` (mixture of isomers), the Cell viability worked out at 97.92%.

In a further experiment the test system is SGC-7901. Briefly: Cytotoxicity against human SGC7901 cells after 20 hrs by MTT assay. The conditions noted are these: SGC-7901, 20 h. In kind it is functional, cell-based.
In general, IC50 refers to the concentration needed to halve the response being measured. For `CC1(C)CC(=O)C2=C(C1)OC(=O)C(NC(=O)c1ccccc1)C2c1ccco1` (stereo not drawn), the IC50 came to 0.259 µg/mL (≈ 0.683 µM).

For the compound `CC1(C)CC(=O)C2=C(C1)OC(=O)C(NC(=O)c1ccccc1)C2c1ccc(F)cc1` (mixture of isomers), half-maximal inhibition (IC50) required 0.436 µg/mL.

In turn, `CC1(C)CC(=O)C2=C(C1)OC(=O)C(NC(=O)c1ccccc1)C2c1ccc(Cl)cc1` (mixture of isomers) showed a concentration for half-maximal inhibition (IC50) greater than 100 µg/mL.

`CC1(C)CC(=O)C2=C(C1)OC(=O)C(NC(=O)c1ccccc1)C2c1ccc([N+](=O)[O-])cc1` (mixture of isomers) yielded an IC50 of 0.905 µg/mL.

`CC1(C)CC(=O)C2=C(C1)OC(=O)C(NC(=O)c1ccccc1)C2c1ccccc1Cl` (mixture of isomers): the IC50 was 0.239 µg/mL.

Compound `CC1(C)CC(=O)C2=C(C1)OC(=O)C(NC(=O)c1ccccc1)C2c1ccccc1Br` (mixture of isomers) displayed an IC50 of 5.13 µg/mL.

Compound `Cc1ccc(C2C3=C(CC(C)(C)CC3=O)OC(=O)C2NC(=O)c2ccccc2)cc1` (mixture of isomers) registered an IC50 of 2.69 µg/mL.

In turn, `COc1cc(C2C3=C(CC(C)(C)CC3=O)OC(=O)C2NC(=O)c2ccccc2)cc(OC)c1OC` (mixture of isomers) showed an IC50 of 0.158 µg/mL.

Consider `CC1(C)CC(=O)C2=C(C1)OC(=O)C(NC(=O)c1ccccc1)C2c1cccs1` (mixture of isomers), for which the IC50 stood at 0.612 µg/mL.

Take `O=C1CCCC2=C1C(c1ccc(F)cc1)C(NC(=O)c1ccccc1)C(=O)O2` (mixture of isomers): half-maximal inhibition (IC50) was put at 0.812 µg/mL.

The compound `O=C1CCCC2=C1C(c1ccc(Cl)cc1)C(NC(=O)c1ccccc1)C(=O)O2` (mixture of isomers) registered an IC50 greater than 100 µg/mL.

Compound `O=C1CCCC2=C1C(c1ccc([N+](=O)[O-])cc1)C(NC(=O)c1ccccc1)C(=O)O2` (mixture of isomers) showed an IC50 of 1.09 µg/mL.

The compound `O=C1CCCC2=C1C(c1ccccc1Cl)C(NC(=O)c1ccccc1)C(=O)O2` (mixture of isomers) yielded an IC50 of 0.226 µg/mL.

The compound `O=C1CCCC2=C1C(c1ccccc1Br)C(NC(=O)c1ccccc1)C(=O)O2` (mixture of isomers) yielded an IC50 of 3.94 µg/mL.

In the case of `Cc1ccc(C2C3=C(CCCC3=O)OC(=O)C2NC(=O)c2ccccc2)cc1` (mixture of isomers), the IC50 was 1.86 µg/mL.

With `COc1cc(C2C3=C(CCCC3=O)OC(=O)C2NC(=O)c2ccccc2)cc(OC)c1OC` (mixture of isomers), the midpoint of inhibition, the IC50, lay at 1.21 µg/mL.

In the case of `O=C1CCCC2=C1C(c1cccs1)C(NC(=O)c1ccccc1)C(=O)O2` (mixture of isomers), the midpoint of inhibition, the IC50, lay at 0.701 µg/mL.

`O=C1CCCC2=C1C(c1ccco1)C(NC(=O)c1ccccc1)C(=O)O2` (mixture of isomers) yielded an IC50 of 1.3 µg/mL.

For the origin of these results see ChEMBL document CHEMBL1687866, “Efficient microwave-assisted synthesis of novel 3-aminohexahydrocoumarin derivatives and evaluation on their cytotoxicity” (Eur J Med Chem, 2011).
